The supplement of paper PMC10307832

How the values were obtained:
Assay in all cases: relative viability (nuclei count vs DMSO), 5 days (fraction); higher = more cells survive
Carfilzomib + Dasatinib = compound: CC(C)C[C@H](NC(=O)[C@H](CCc1ccccc1)NC(=O)CN1CCOCC1)C(=O)N[C@@H](Cc1ccccc1)C(=O)N[C@@H](CC(C)C)C(=O)[C@@]1(C)CO1 [Carfilzomib] + Cc1nc(Nc2ncc(C(=O)Nc3c(C)cccc3Cl)s2)cc(N2CCN(CCO)CC2)n1 [Dasatinib] (partner 0.075 µM)
Procedure, shortened: (§1)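 Each reported value is a median over duplicate plates. It expresses relative viability: treated-well nuclei count divided by vehicle-well nuclei count. Lung cancer cell lines in 1536-well plates were dosed by pin tool a day after seeding, alone with one drug or with a fixed anchor-drug dose plus five library-drug doses (not always all listed) in √10 steps, and nuclei were counted after 5 days.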

Crizotinib + Pemetrexed = compound: C[C@@H](Oc1cc(-c2cnn(C3CCNCC3)c2)cnc1N)c1c(Cl)ccc(F)c1Cl [Crizotinib] + Nc1nc2[nH]cc(CCc3ccc(C(=O)N[C@@H](CCC(=O)O)C(=O)O)cc3)c2c(=O)[nH]1 [Pemetrexed] (partner 0.2 µM)
Procedure, shortened: as §1

Carfilzomib + Luminespib = compound: CC(C)C[C@H](NC(=O)[C@H](CCc1ccccc1)NC(=O)CN1CCOCC1)C(=O)N[C@@H](Cc1ccccc1)C(=O)N[C@@H](CC(C)C)C(=O)[C@@]1(C)CO1 [Carfilzomib] + CCNC(=O)c1noc(-c2cc(C(C)C)c(O)cc2O)c1-c1ccc(CN2CCOCC2)cc1 [Luminespib] (partner 0.01 µM)
Procedure, shortened: as §1

Carfilzomib + Foretinib = compound: CC(C)C[C@H](NC(=O)[C@H](CCc1ccccc1)NC(=O)CN1CCOCC1)C(=O)N[C@@H](Cc1ccccc1)C(=O)N[C@@H](CC(C)C)C(=O)[C@@]1(C)CO1 [Carfilzomib] + COc1cc2c(Oc3ccc(NC(=O)C4(C(=O)Nc5ccc(F)cc5)CC4)cc3F)ccnc2cc1OCCCN1CCOCC1 [Foretinib] (partner 0.25 µM)
Procedure, shortened: as §1

Crizotinib + Linsitinib = compound: C[C@@H](Oc1cc(-c2cnn(C3CCNCC3)c2)cnc1N)c1c(Cl)ccc(F)c1Cl [Crizotinib] + C[C@]1(O)C[C@@H](c2nc(-c3ccc4ccc(-c5ccccc5)nc4c3)c3c(N)nccn32)C1 [Linsitinib] (partner 1 µM)
Procedure, shortened: as §1

Question: NCI-H1793 was tested. Which relative viability (Carfilzomib + Dasatinib; first compound 0.003162 µM) did it give?
Answer: Its relative viability is 0.507.

Question: And the relative viability (Carfilzomib + Dasatinib; first compound 0.01 µM)?
Answer: The relative viability was 0.353.

Question: What about the relative viability (Carfilzomib + Dasatinib; first compound 0.03162 µM) of the same cell line?
Answer: Its relative viability is 0.376.

Question: What about the relative viability (Carfilzomib + Dasatinib; first compound 0.1 µM) of the same cell line?
Answer: Its relative viability is 0.389.

Question: What about the relative viability (Crizotinib + Pemetrexed; first compound 0.03162 µM) of the same cell line?
Answer: The relative viability was 1.04.

Question: What about the relative viability (Crizotinib + Pemetrexed; first compound 0.1 µM) of the same cell line?
Answer: The relative viability was 0.902.

Question: And the relative viability (Crizotinib + Pemetrexed; first compound 1 µM)?
Answer: The relative viability was 1.2.

Question: And the relative viability (Carfilzomib + Luminespib; first compound 0.003162 µM)?
Answer: The relative viability was 0.216.

Question: And the relative viability (Carfilzomib + Luminespib; first compound 0.01 µM)?
Answer: The relative viability was 0.172.

Question: What about the relative viability (Carfilzomib + Luminespib; first compound 0.03162 µM) of the same cell line?
Answer: Its relative viability is 0.181.

Question: What about the relative viability (Carfilzomib + Luminespib; first compound 0.1 µM) of the same cell line?
Answer: The relative viability was 0.154.

Question: What about the relative viability (Carfilzomib + Foretinib; first compound 0.003162 µM) of the same cell line?
Answer: The relative viability was 0.664.

Question: What about the relative viability (Carfilzomib + Foretinib; first compound 0.01 µM) of the same cell line?
Answer: Its relative viability is 0.823.

Question: And the relative viability (Carfilzomib + Foretinib; first compound 0.03162 µM)?
Answer: Its relative viability is 0.707.

Question: What about the relative viability (Carfilzomib + Foretinib; first compound 0.1 µM) of the same cell line?
Answer: Its relative viability is 0.393.

Question: And the relative viability (Crizotinib + Linsitinib; first compound 0.01 µM)?
Answer: Its relative viability is 1.01.

Question: What about the relative viability (Crizotinib + Linsitinib; first compound 0.03162 µM) of the same cell line?
Answer: The relative viability was 0.922.

Question: What about the relative viability (Crizotinib + Linsitinib; first compound 0.1 µM) of the same cell line?
Answer: The relative viability was 0.837.

Question: And the relative viability (Crizotinib + Linsitinib; first compound 1 µM)?
Answer: Its relative viability is 0.87.
